In patent publication US8999970B2, “Administration of an anti-obesity compound to individuals with renal impairment” (Arena Pharmaceuticals, Inc., priority 2010, dated 2015):
Where “and” joins values, the source holds several entries; their conditions need not be identical. Identical values can stand only once. Entries after “also recorded” stand apart in the source; their conditions may differ.

Legend:
[1] = Modeled steady state exposures following lorcaserin 10 mg BID (simulations and noncompartmental analysis from QD data); settings: for AUC24 hr / Cmax / t1/2: 10 mg BID Simulation, Steady State
Experimental: To better assess the potential implications of M1 and M5 levels in patients, steady state exposures (i.e. the state of equilibrium obtained at the end of a certain number of dosings) following lorcaserin 10 mg twice daily (BID) dosing were modeled using simulations and noncompartmental analysis based on data from pharmacokinetic studies with once daily (QD) dosing.
To better assess the potential implications of M1 levels in subjects with renal impairment, steady state M1 exposure following lorcaserin 10 mg BID administration was modeled using simulations and noncompartmental analysis based upon data from pharmacokinetic studies with once daily (QD) dosing. This modeling is discussed below in Example 5.
To better assess the potential implications of M1 and M5 levels, steady state exposures following lorcaserin 10 mg BID dosing were modeled using simulations and noncompartmental analysis based upon data from pharmacokinetic studies with once daily (QD) dosing.

[2] = Preclinical toxicology: lorcaserin, M1 and M5 pharmacokinetics after oral administration of lorcaserin, 52 wk, monkeys; settings: for AUC0-inf / AUClast / Cmax / tmax: Monkeys, 52 wk; for AUC0-inf in monkeys relative to predicted daily exposure in severe renal impairment / Cmax in monkeys relative to predicted Cmax in severe renal impairment: monkeys 2 mg/kg/day (NOAEL); for AUC0-inf in monkeys relative to predicted daily exposure in severe renal impairment / AUC0-inf exposure margin, monkeys vs predicted daily exposure in severe renal impairment: human 10 mg BID; for Cmax in monkeys relative to predicted Cmax in severe renal impairment: human 10 mg BID steady state; for Dose proportionality of plasma exposure: Day 1, 2 to 125 mg/kg, both sexes
Experimental: Lorcaserin doses of 0, 2, 10, 50, and 125 mg/kg in a 5 mL/kg dose volume were administered by nasogastric intubation once daily for 12 months to cynomolgus monkeys (4 to 6/sex/group). Two animals/sex from the control, 50 and 125 mg/kg groups were continued on study without further dosing for an additional 4 weeks prior to termination. For the first 91 days of the study, dose solutions were prepared using anhydrous lorcaserin. Starting on Day 92 and continuing for the remainder of the study, dose solutions were prepared using lorcaserin hemihydrate to match the intended commercial form. […] Evaluations included clinical signs, food consumption, BW, electrocardiograms, ophthalmic exams, and clinical pathology indices. Blood samples were collected for TK analysis on Day 1, Week 4, Day 91, Day 92, and Week 52. A full necropsy was conducted on all animals, and tissues were collected, preserved, processed, and examined microscopically. Additional sections of heart were collected to allow comprehensive evaluation of all heart valves. Heart histopathologic evaluation included atria, ventricles, interventricular septum, both AV valves (mitral and tricuspid), and the aortic and pulmonic valves.

[3] = lorcaserin 10 mg/kg/day oral, F
[4] = lorcaserin 10 mg/kg/day oral, M
[5] = lorcaserin 50 mg/kg/day oral, F
[6] = lorcaserin 50 mg/kg/day oral, M
[7] = lorcaserin 125 mg/kg/day oral, F
[8] = lorcaserin 125 mg/kg/day oral, M

Work on `C[C@H]1CN(C(=O)O[C@@H]2O[C@H](C(=O)O)[C@@H](O)[C@H](O)[C@H]2O)CCc2ccc(Cl)cc21` [Compound M5, N-carbamoyl glucuronide of lorcaserin] yielded an AUC24 hr ([1]; ESRD) of 20100 ng·h/mL, a Cmax ([1]; ESRD) of 936 ng/mL and a t1/2 ([1]; ESRD) of 22.9 h. It also gave an AUC24 hr ([1]; Mild) of 1090 ng·h/mL, a Cmax ([1]; Mild) of 78.1 ng/mL and a t1/2 ([1]; Mild) of 5.41 h. The AUC24 hr ([1]; Moderate) was 2150 ng·h/mL, the Cmax ([1]; Moderate) was 141 ng/mL and the t1/2 ([1]; Moderate) was 9.83 h. The AUC24 hr ([1]; Normal) was 765 ng·h/mL, the Cmax ([1]; Normal) was 77.3 ng/mL and the t1/2 ([1]; Normal) was 6.11 h. For the same compound, the AUC24 hr ([1]; Severe) was 4260 ng·h/mL, the Cmax ([1]; Severe) was 223 ng/mL and the t1/2 ([1]; Severe) was 11.0 h. It also gave an AUC0-inf ([2]; lorcaserin 2 mg/kg/day oral, F) of 2.13 ± 0.82 µg·h/mL, an AUClast ([2]; lorcaserin 2 mg/kg/day oral, F) of 1.76 ± 0.83 µg·h/mL and a Cmax ([2]; lorcaserin 2 mg/kg/day oral, F) of 771 ± 104 ng/mL. It also gave a tmax ([2]; lorcaserin 2 mg/kg/day oral, F) of 0.5 ± 0.0 h, an AUC0-inf ([2]; lorcaserin 2 mg/kg/day oral, M) of 2.38 ± 0.29 µg·h/mL and an AUClast ([2]; lorcaserin 2 mg/kg/day oral, M) of 1.82 ± 0.57 µg·h/mL. For the same compound, the Cmax ([2]; lorcaserin 2 mg/kg/day oral, M) was 635 ± 310 ng/mL, the tmax ([2]; lorcaserin 2 mg/kg/day oral, M) was 0.8 ± 0.3 h and the AUC0-inf [2, 3] was 6.52 ± 1.52 µg·h/mL. The AUClast [2, 3] was 6.14 ± 1.71 µg·h/mL, the tmax [2, 3] was 1.0 ± 0.7 h and the AUC0-inf [2, 4] was 13.6 ± 5.0 µg·h/mL. It also gave an AUClast [2, 4] of 12.5 ± 6.1 µg·h/mL, a Cmax [2, 4] of 2480 ± 1140 ng/mL and a tmax [2, 4] of 1.8 ± 0.5 h. For the same compound, the AUC0-inf [2, 5] was 40.4 ± 13.4 µg·h/mL, the AUClast [2, 5] was 38.7 ± 12.7 µg·h/mL and the Cmax [2, 5] was 3600 ± 620 ng/mL. It also gave a tmax [2, 5] of 3.2 ± 1.8 h, an AUC0-inf [2, 6] of 71.4 ± 26.6 µg·h/mL and an AUClast [2, 6] of 69.0 ± 25.8 µg·h/mL. It also gave a Cmax [2, 6] of 7040 ± 2050 ng/mL, a tmax [2, 6] of 2.3 ± 1.9 h and an AUC0-inf [2, 7] of 140 ± 78 µg·h/mL. It also gave an AUClast [2, 7] of 134 ± 78 µg·h/mL, a Cmax [2, 7] of 19700 ± 13500 ng/mL and a tmax [2, 7] of 2.7 ± 2.0 h. It also gave an AUC0-inf [2, 8] of 182 ± 77 µg·h/mL, an AUClast [2, 8] of 170 ± 64 µg·h/mL and a Cmax [2, 8] of 15800 ± 3700 ng/mL. For the same compound, the tmax [2, 8] was 2.2 ± 1.9 h, the “AUC0-inf in monkeys relative to predicted daily exposure in moderate renal impairment” value ([2]; monkeys 2 mg/kg/day) was “approximately equal” and the “AUC0-inf in monkeys relative to predicted daily exposure in severe renal impairment” value [2] was “approximately half”. The “Cmax in monkeys relative to predicted Cmax in severe renal impairment” value [2] was 2.8-3.5 times, the “Exposure in monkeys relative to predicted daily exposure in moderate renal impairment” value ([2]; monkeys 10 mg/kg/day) was 3.0-6.3 times and the “AUC0-inf exposure margin, monkeys vs predicted daily exposure in severe renal impairment” value ([2]; monkeys 10 mg/kg/day) was 1.5-3.2 fold. The “Dose proportionality of plasma exposure” value ([2]; monkeys) was “more than dose proportional” and the “Exposure relative to the concomitant lorcaserin exposure, higher” value ([2]; monkeys, single or multiple doses of lorcaserin) was “up to 3 fold”.

With `C[C@H]1CN(S(=O)(=O)O)CCc2ccc(Cl)cc21` [Compound M1, lorcaserin sulfamate] the AUC24 hr ([1]; Mild) was 4620 ng·h/mL, the Cmax ([1]; Mild) was 207 ng/mL and the t1/2 ([1]; Mild) was 34.6 h. It also gave an AUC24 hr ([1]; Moderate) of 9670 ng·h/mL, a Cmax ([1]; Moderate) of 414 ng/mL and a t1/2 ([1]; Moderate) of 109 h. For the same compound, the AUC24 hr ([1]; Normal) was 2790 ng·h/mL, the Cmax ([1]; Normal) was 130 ng/mL and the t1/2 ([1]; Normal) was 30.0 h. The AUC24 hr ([1]; Severe) was 25,500 hr · ng/mL, the Cmax ([1]; Severe) was 1090 ng/mL and the t1/2 ([1]; Severe) was 99.2 h. The “Level some individuals with severe renal impairment might reach at steady state” value ([1]; five times the modeled mean of 1090 ng/mL) was “over 5000 ng/mL; also recorded: more than 5000 ng/mL”, the AUC0-inf ([2]; lorcaserin 2 mg/kg/day oral, F) was 41 µg·h/mL and 40.9 ± 1.6 µg·h/mL and the AUClast ([2]; lorcaserin 2 mg/kg/day oral, F) was 39.3 ± 1.8 µg·h/mL. The Cmax ([2]; lorcaserin 2 mg/kg/day oral, F) was 4580 ng/mL, the tmax ([2]; lorcaserin 2 mg/kg/day oral, F) was 1.5 ± 0.6 h and the AUC0-inf ([2]; lorcaserin 2 mg/kg/day oral, M) was 62 µg·h/mL and 61.6 ± 15.4 µg·h/mL. The AUClast ([2]; lorcaserin 2 mg/kg/day oral, M) was 56.4 ± 14.3 µg·h/mL, the Cmax ([2]; lorcaserin 2 mg/kg/day oral, M) was 5010 ng/mL and the tmax ([2]; lorcaserin 2 mg/kg/day oral, M) was 3.0 ± 1.2 h. For the same compound, the AUC0-inf [2, 3] was 307 ± 66 µg·h/mL, the AUClast [2, 3] was 269 ± 40 µg·h/mL and the Cmax [2, 3] was 27500 ± 6600 ng/mL. It also gave a tmax [2, 3] of 2.5 ± 1.0 h, an AUC0-inf [2, 4] of 312 ± 79 µg·h/mL and an AUClast [2, 4] of 276 ± 74 µg·h/mL. The Cmax [2, 4] was 22000 ± 7600 ng/mL, the tmax [2, 4] was 3.3 ± 1.5 h and the AUC0-inf [2, 5] was 877 ± 221 µg·h/mL. It also gave an AUClast [2, 5] of 771 ± 182 µg·h/mL, a Cmax [2, 5] of 56300 ± 13400 ng/mL and a tmax [2, 5] of 5.2 ± 2.4 h. The AUC0-inf [2, 6] was 1060 ± 313 µg·h/mL, the AUClast [2, 6] was 904 ± 228 µg·h/mL and the Cmax [2, 6] was 62300 ± 14100 ng/mL. For the same compound, the tmax [2, 6] was 4.7 ± 1.6 h, the AUC0-inf [2, 7] was 1910 ± 865 µg·h/mL and the AUClast [2, 7] was 1580 ± 501 µg·h/mL. It also gave a Cmax [2, 7] of 115000 ± 24000 ng/mL, a tmax [2, 7] of 3.5 ± 2.5 h and an AUC0-inf [2, 8] of 2020 ± 856 µg·h/mL. The AUClast [2, 8] was 1460 ± 269 µg·h/mL, the Cmax [2, 8] was 106000 ± 31000 ng/mL and the tmax [2, 8] was 3.7 ± 2.3 h. For the same compound, the “AUC0-inf in monkeys relative to predicted daily exposure in severe renal impairment” value [2] was 1.6-2.4 times, the “Cmax in monkeys relative to predicted Cmax in severe renal impairment” value [2] was “approximately 5 times” and the “Cmax margin, monkeys vs predicted exposure in severe renal impairment” value ([2]; monkeys 10 mg/kg/day) was 20-25 times. The “AUC0-inf exposure margin, monkeys vs predicted daily exposure in severe renal impairment” value ([2]; monkeys 10 mg/kg/day) was “about 12 fold” and the “Dose proportionality of plasma exposure” value ([2]; monkeys) was “less than dose proportional”.

`C[C@H]1CNCCc2ccc(Cl)cc21` [Lorcaserin, (R)-8-chloro-1-methyl-2,3,4,5-tetrahydro-1H-3-benzazepine] gave an AUC24 hr ([1]; ESRD) of 1860 ng·h/mL, a Cmax ([1]; ESRD) of 87.6 ng/mL and a t1/2 ([1]; ESRD) of 24.8 h. The AUC24 hr ([1]; Mild) was 1270 ng·h/mL, the Cmax ([1]; Mild) was 64.1 ng/mL and the t1/2 ([1]; Mild) was 12.0 h. The AUC24 hr ([1]; Moderate) was 935 ng·h/mL, the Cmax ([1]; Moderate) was 49.5 ng/mL and the t1/2 ([1]; Moderate) was 11.5 h. For the same compound, the AUC24 hr ([1]; Normal) was 942 ng·h/mL, the Cmax ([1]; Normal) was 55.8 ng/mL and the t1/2 ([1]; Normal) was 8.28 h. It also gave an AUC24 hr ([1]; Severe) of 835 ng·h/mL, a Cmax ([1]; Severe) of 40.9 ng/mL and a t1/2 ([1]; Severe) of 12.8 h. For the same compound, the “Dose proportionality of plasma exposure” value ([2]; monkeys) was “dose linear”.
